Measurements taken from PubChem BioAssay (NCI).
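How tested: cells in 96-well plates exposed to compound for 48 hours at five concentrations. TGI denotes the concentration required for complete inhibition of growth.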

Experiments:
Assay in all cases: NCI anticancer screen, dose series, 48 h
[1] = tested on: ACHN renal
[2] = tested on: CCRF-CEM leukemia
[3] = tested on: SK-OV-3 ovarian
[4] = tested on: SN12C renal
[5] = tested on: A498 renal
[6] = tested on: U251 CNS
[7] = tested on: SF-539 CNS
[8] = tested on: HOP-62 NSCLC
[9] = tested on: MDA-N
[10] = tested on: OVCAR-3 ovarian
[11] = tested on: SK-MEL-5 melanoma
[12] = tested on: MDA-MB-231 breast
[13] = tested on: SF-295 CNS
[14] = tested on: A549 NSCLC
[15] = tested on: K-562 leukemia
[16] = tested on: COLO 205 colon
[17] = tested on: HCT-15 colon
[18] = tested on: OVCAR-4 ovarian
[19] = tested on: HCC-2998 colon
[20] = tested on: BT-549 breast
[21] = tested on: OVCAR-5 ovarian
[22] = tested on: HS 578T breast
[23] = tested on: NCI-H23 lung
[24] = tested on: SW-620 colon
[25] = tested on: RPMI-8226 leukemia
[26] = tested on: DU-145 prostate
[27] = tested on: SNB-75 CNS
[28] = tested on: CAKI-1 renal
[29] = tested on: MCF7 breast
[30] = tested on: HT29 colon
[31] = tested on: UACC-257 melanoma
[32] = tested on: UACC-62 melanoma
[33] = tested on: HOP-92 NSCLC
[34] = tested on: OVCAR-8 ovarian
[35] = tested on: HCT-116 colon
[36] = tested on: NCI-H522 lung
[37] = tested on: MOLT-4 leukemia
[38] = tested on: M14 melanoma
[39] = tested on: EKVX NSCLC
[40] = tested on: NCI-H226 lung
[41] = tested on: UO-31 renal
[42] = tested on: 786-0 renal
[43] = tested on: SK-MEL-2 melanoma
[44] = tested on: MDA-MB-435
[45] = tested on: NCI-H460 lung
[46] = tested on: SK-MEL-28 melanoma
[47] = tested on: HL-60(TB) leukemia
[48] = tested on: NCI/ADR-RES ovarian
[49] = tested on: SF-268 CNS
[50] = tested on: PC-3 prostate
[51] = tested on: LOX IMVI melanoma
[52] = tested on: T-47D breast
[53] = tested on: TK-10 renal
[54] = tested on: KM12 colon
[55] = tested on: RXF 393 renal
[56] = tested on: SR leukemia

## O=P1(N(CCCl)CCCl)Oc2ccc(Cl)cc2C(C(Cl)(Cl)Cl)c2cc(Cl)ccc2O1 (stereo unspecified)
[1]
  TGI: > 100 µM
[2]
  TGI: > 100 µM
[3]
  TGI: > 100 µM
[4]
  TGI: 57.6 µM
[5]
  TGI: > 100 µM
[6]
  TGI: 29.2 µM
[7]
  TGI: 29.9 µM
[8]
  TGI: 27.9 µM
[9]
  TGI: 87.7 µM
[10]
  TGI: 24.3 µM
[11]
  TGI: 24 µM
[12]
  TGI: 44.4 µM
[13]
  TGI: 23.7 µM
[14]
  TGI: > 100 µM
[15]
  TGI: > 100 µM
[16]
  TGI: 26.5 µM
[17]
  TGI: 23.5 µM
[18]
  TGI: > 100 µM
[19]
  TGI: 34.3 µM
[20]
  TGI: > 100 µM
[21]
  TGI: > 100 µM
[22]
  TGI: 41 µM
[23]
  TGI: > 100 µM
[24]
  TGI: > 100 µM
[25]
  TGI: > 100 µM
[26]
  TGI: > 100 µM
[27]
  TGI: 37.9 µM
[28]
  TGI: > 100 µM
[29]
  TGI: 73.9 µM
[30]
  TGI: 18.9 µM
[31]
  TGI: > 100 µM
[32]
  TGI: 26.7 µM
[33]
  TGI: 40.4 µM
[34]
  TGI: > 100 µM
[35]
  TGI: 15.9 µM
[36]
  TGI: 42.9 µM
[37]
  TGI: > 100 µM
[38]
  TGI: 98.4 µM
[39]
  TGI: > 100 µM
[40]
  TGI: 50.9 µM
[41]
  TGI: > 100 µM
[42]
  TGI: 30.7 µM
[43]
  TGI: 47.3 µM
[44]
  TGI: 71.8 µM
[45]
  TGI: 29.8 µM
[46]
  TGI: > 100 µM
[47]
  TGI: > 100 µM
[48]
  TGI: > 100 µM
[49]
  TGI: > 100 µM
[50]
  TGI: > 100 µM
[51]
  TGI: 28.7 µM
[52]
  TGI: > 100 µM
[53]
  TGI: 89.5 µM
[54]
  TGI: 33.4 µM
[55]
  TGI: 29.3 µM
[56]
  TGI: 30.6 µM
